Assay: The binding affinity at 5-hydroxytryptamine 1D receptor was determined using [3H]5-CT

COc1cccc2c1N1CCN(C)C[C@@H]1c1ccccc1C2 [(+)-65-Methoxy-2-methyl-1,2,3,4,9,13b-hexahydro-2,4a-diaza-tribenzo[a,c,e]cycloheptene]
Ki: 1470 nM

From BindingDB's records for doi:10.1021/jm010566d (University Center For Pharmacy, 2002)
